# ChEMBL document CHEMBL4152349, “A Fragment-Derived Clinical Candidate for Antagonism of X-Linked and Cellular Inhibitor of Apoptosis Proteins: 1-(6-[(4-Fluorophenyl)methyl]-5-(hydroxymethyl)-3,3-dimethyl-1 H,2 H,3 H-pyrrolo[3,2- b]pyridin-1-yl)-2-[(2 R,5 …” (J Med Chem, 2018)
# pIC50: −log10 of the molar value. Active and inactive are the calls of the source. The calls are words filed in the database; no cut-off is given here.
# Key:
# [1] = Chromatographic hydrophobicity index, log D of the compound at pH 7.4 by HPLC method; format: physicochemical; settings: buffer
# [2] = test system: MDA-MB-231; assay: cells; settings: Homo sapiens, MDA-MB-231, 72 h
# [3] = molecular target: hERG (KCNH2) (Homo sapiens, UniProt Q12809); assay: in vitro; settings: CHO-K1 cells expressing human ERG
# [4] = molecular target: CYP3A4 (Homo sapiens, UniProt P08684); assay: in vitro; settings: human CYP3A4 supersomes
# [5] = Oral bioavailability in Balb/c mouse at 10 mg/kg by UHPLC and ESI mass spectrometry; format: ADME, organism-based; settings: in vivo
# [6] = in vivo; settings: cynomolgus monkey, po, 5 mg/kg
# [7] = test system: MDA-MB-231; assay: Antitumor activity against human MDA-MB-231 cells xenografted in Balb/c mouse assessed as tumor growth inhibition at 16 mg/kg, po qd after 1 to 22 days; format: functional, organism-based
# [8] = test system: MDA-MB-231; assay: Antitumor activity against human MDA-MB-231 cells xenografted in Balb/c mouse assessed as tumor growth inhibition at 20 mg/kg, po qd after 1 to 22 days; format: functional, organism-based
# [9] = test system: Mus musculus; assay: In vivo inhibition of XIAP interaction with SMAC in human MDA-MB-231 cells xenografted in Balb/c SCID mouse at 20 mg/kg, po administered as single dose measured up to 72 hrs by MSD plate-based assay; format: functional, organism-based
# [10] = test system: Mus musculus; assay: Reduction in cIAP1 level in tumor of Balb/c SCID mouse xenografted with human MDA-MB-231 cells at 20 mg/kg, po administered as single dose measured up to 72 hrs by MSD plate-based assay; format: functional, organism-based
# [11] = Cmax in cynomolgus monkey at 5 mg/kg, po by UHPLC and ESI mass spectrometry; format: ADME, organism-based, Macaca fascicularis; parameters: dose 5 mg/kg, route oral; settings: in vivo
# [12] = Plasma clearance in Balb/c mouse at 5 mg/kg, iv or 10 mg/kg, po by UHPLC and ESI mass spectrometry; format: ADME, organism-based
# [13] = Plasma clearance in Sprague-Dawley rat at 5 mg/kg, iv or 10 mg/kg, po by UHPLC and ESI mass spectrometry; format: ADME, organism-based
# [14] = Volume of distribution at steady state in Balb/c mouse at 5 mg/kg, iv or 10 mg/kg, po by UHPLC and ESI mass spectrometry; format: ADME, organism-based; settings: in vivo, read-out: Vdss
# [15] = Volume of distribution at steady state in Sprague-Dawley rat at 5 mg/kg, iv or 10 mg/kg, po by UHPLC and ESI mass spectrometry; format: ADME, organism-based; settings: in vivo, read-out: Vdss
# [16] = Cmax in Balb/c mouse at 10 mg/kg, po by UHPLC and ESI mass spectrometry; format: ADME, organism-based; parameters: dose 10 mg/kg, route oral; settings: in vivo
# [17] = Cmax in Sprague-Dawley rat at 10 mg/kg, po by UHPLC and ESI mass spectrometry; format: ADME, organism-based; parameters: dose 10 mg/kg, route oral; settings: in vivo
# [18] = Oral bioavailability in Sprague-Dawley rat at 10 mg/kg by UHPLC and ESI mass spectrometry; format: ADME, organism-based; settings: in vivo
# [19] = test system: Cynomolgus monkey; assay: Cardiotoxicity in cynomolgus monkey assessed as effect on QT interval at 100 mg/kg, po administered as single dose; format: toxicity, organism-based, Macaca fascicularis; settings: in vivo
# [20] = in vivo; settings: cynomolgus monkey, plasma, iv, 1 mg/kg
# [21] = in vivo; settings: cynomolgus monkey, iv, 1 mg/kg
# [22] = in vivo; settings: cynomolgus monkey, po, 60 mg/kg
# [23] = Drug level in CD-1 mouse hepatocytes treated with 1-(6-(4-fluorobenzyl)-3,3-dimethyl-2,3-dihydro-1H-pyrrolo[3,2-b]pyridin-1-yl)-2-((2R,5R)-5-methyl-2-(((R)-3-methylmorpholino)methyl)piperazin-1-yl)ethanone at 10 uM up to 90 mins by LC-MS analysis; format: ADME, cell-based, Hepatocyte
# [24] = Drug level in human hepatocytes treated with 1-(6-(4-fluorobenzyl)-3,3-dimethyl-2,3-dihydro-1H-pyrrolo[3,2-b]pyridin-1-yl)-2-((2R,5R)-5-methyl-2-(((R)-3-methylmorpholino)methyl)piperazin-1-yl)ethanone at 10 uM up to 90 mins by LC-MS analysis; format: ADME, cell-based, Hepatocyte
# [25] = Drug level in cynomolgus monkey hepatocytes treated with 1-(6-(4-fluorobenzyl)-3,3-dimethyl-2,3-dihydro-1H-pyrrolo[3,2-b]pyridin-1-yl)-2-((2R,5R)-5-methyl-2-(((R)-3-methylmorpholino)methyl)piperazin-1-yl)ethanone at 10 uM up to 90 mins by LC-MS analysis; format: ADME, cell-based, Macaca fascicularis, Hepatocyte
# Chain of hERG (KCNH2) (Q12809 whole entry): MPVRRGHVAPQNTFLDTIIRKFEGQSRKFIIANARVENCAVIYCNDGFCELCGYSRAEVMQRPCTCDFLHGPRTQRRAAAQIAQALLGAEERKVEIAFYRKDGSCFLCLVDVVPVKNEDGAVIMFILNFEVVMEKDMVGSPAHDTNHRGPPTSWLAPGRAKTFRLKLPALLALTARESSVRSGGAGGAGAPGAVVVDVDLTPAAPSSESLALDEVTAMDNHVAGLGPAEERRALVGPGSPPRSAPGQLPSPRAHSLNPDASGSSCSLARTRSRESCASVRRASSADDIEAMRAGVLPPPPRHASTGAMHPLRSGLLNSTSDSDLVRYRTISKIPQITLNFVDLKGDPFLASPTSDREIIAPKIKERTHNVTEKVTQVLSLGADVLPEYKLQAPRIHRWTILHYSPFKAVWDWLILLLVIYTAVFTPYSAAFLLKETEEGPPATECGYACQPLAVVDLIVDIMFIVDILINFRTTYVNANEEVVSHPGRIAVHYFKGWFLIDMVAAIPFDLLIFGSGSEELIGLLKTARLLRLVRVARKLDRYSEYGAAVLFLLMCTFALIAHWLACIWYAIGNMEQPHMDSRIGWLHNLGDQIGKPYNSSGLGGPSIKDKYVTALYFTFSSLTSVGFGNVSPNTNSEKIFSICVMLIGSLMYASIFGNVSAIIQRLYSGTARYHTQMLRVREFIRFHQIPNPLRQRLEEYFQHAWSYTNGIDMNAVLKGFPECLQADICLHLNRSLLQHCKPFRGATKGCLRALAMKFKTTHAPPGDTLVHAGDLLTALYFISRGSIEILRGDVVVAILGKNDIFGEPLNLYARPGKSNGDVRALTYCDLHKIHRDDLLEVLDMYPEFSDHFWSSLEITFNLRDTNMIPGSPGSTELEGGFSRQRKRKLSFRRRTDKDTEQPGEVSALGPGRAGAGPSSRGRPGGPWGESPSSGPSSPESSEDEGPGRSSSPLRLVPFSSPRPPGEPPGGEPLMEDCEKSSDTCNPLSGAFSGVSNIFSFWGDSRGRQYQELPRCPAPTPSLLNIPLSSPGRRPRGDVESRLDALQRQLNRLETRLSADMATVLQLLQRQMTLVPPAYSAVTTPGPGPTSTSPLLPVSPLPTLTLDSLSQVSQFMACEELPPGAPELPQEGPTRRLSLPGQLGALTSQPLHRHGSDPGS
# Chain of CYP3A4 (P08684 whole entry): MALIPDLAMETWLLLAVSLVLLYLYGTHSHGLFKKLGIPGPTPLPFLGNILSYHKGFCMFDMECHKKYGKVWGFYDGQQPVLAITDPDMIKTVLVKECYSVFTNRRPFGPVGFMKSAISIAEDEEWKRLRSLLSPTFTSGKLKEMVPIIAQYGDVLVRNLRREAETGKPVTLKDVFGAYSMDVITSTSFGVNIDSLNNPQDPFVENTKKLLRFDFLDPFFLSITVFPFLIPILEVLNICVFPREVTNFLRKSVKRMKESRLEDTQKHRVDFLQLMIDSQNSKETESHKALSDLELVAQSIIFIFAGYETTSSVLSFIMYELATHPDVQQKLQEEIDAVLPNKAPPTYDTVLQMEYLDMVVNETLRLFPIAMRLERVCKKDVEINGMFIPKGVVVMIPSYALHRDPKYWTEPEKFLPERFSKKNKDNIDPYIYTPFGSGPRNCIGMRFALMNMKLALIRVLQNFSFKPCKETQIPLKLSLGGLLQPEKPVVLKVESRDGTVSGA
Compound,chromatographic logD [1],pIC50 [2],"half-life at 40 min, 1 µM [4]",bioavailability [5],bioavailability [6],"inhibition at 10 min, 30 µM [3]",other results
C[C@@H]1CN(CC(=O)N2CC(C)(C)c3nnc(Cc4ccc(F)cc4F)cc32)[C@@H](CN2Cc3ccc(F)cc3C2=O)CN1,3.1,8.54,41 min,–,–,18%,–
C[C@@H]1CN(CC(=O)N2CC(C)(C)c3nc(CO)c(Cc4ccc(F)cc4)cc32)[C@@H](CN2CCOC[C@H]2C)CN1,–,–,–,–,–,–,TGI [7]: Active; TGI [8]: Active; Activity [9]: Active; Activity [10]: Active
C[C@@H]1CN(CC(=O)N2CC(C)(C)c3nnc(Cc4ccc(F)cc4)cc32)[C@@H](CN2Cc3ccccc3C2=O)CN1,–,7.80,38 min,–,–,12%,–
C[C@@H]1CN(CC(=O)N2CC(C)(C)c3nc(CO)c(Cc4ccc(F)cc4)cc32)[C@@H](CN2CCOC[C@H]2C)CN1 [ASTX-660],3.1,–,–,34%,12%,–,Cmax [11]: 137 ng/mL; clearance [12]: 41 mL/min/kg; clearance [13]: 38 mL/min/kg; Vd [14]: 2.7 L/kg; Vd [15]: 9.3 L/kg; Cmax [16]: 433 ng/mL; Cmax [17]: 117 ng/mL; bioavailability [18]: 29%; Activity [19]: Non-Toxic; clearance [20]: 16 mL/min/kg; Vd [21]: 6 L/kg; bioavailability [22]: 50%
C[C@@H]1CN(CC(=O)N2CC(C)(C)c3ncc(Cc4ccc(F)cc4)cc32)[C@@H](CN)CN1,–,–,–,–,–,–,Drug uptake [23]: Active; Drug uptake [24]: Active; Drug uptake [25]: Active

# Second part, led by results:
chromatographic logD [1],pIC50 [2],"half-life at 40 min, 1 µM [4]",bioavailability [5],bioavailability [6],Compound,"inhibition at 10 min, 30 µM [3]",other results
2.7,9.23,> 70 min,–,–,C[C@@H]1CN(CC(=O)N2CC(C)(C)c3nnc(Cc4ccc(F)cc4F)cc32)[C@@H](CN2Cc3c(F)cccc3C2=O)CN1,28%,–
2.9,–,–,31%,13%,C[C@@H]1CN(CC(=O)N2CC(C)(C)c3ncc([C@@H](O)c4ccc(F)cc4)cc32)[C@@H](CN2[C@H](C)COC[C@H]2C)CN1,–,–
2.4,–,–,–,–,C[C@@H]1CN(CC(=O)N2CC(C)(C)c3cc(=O)n(Cc4ccc(F)cc4)cc32)[C@@H](CN2[C@H](C)COC[C@H]2C)CN1,–,–
3.2,–,–,–,–,C[C@@H]1CN(CC(=O)N2CC(C)(C)c3c2cc(Cc2ccc(F)cc2)c(=O)n3C)[C@@H](CN2[C@H](C)COC[C@H]2C)CN1,–,–
–,–,–,31%,13%,C[C@@H]1CN(CC(=O)N2CC(C)(C)c3ncc([C@H](O)c4ccc(F)cc4)cc32)[C@@H](CN2[C@H](C)COC[C@H]2C)CN1,–,–
